# Results published in patent US9969694B2, “N-(arylalkyl)-N′-pyrazolyl-urea, thiourea, guanidine and cyanoguanidine compounds as TrkA kinase inhibitors” (Array BioPharma Inc., priority 2012, dated 2018).
# Counter-ions that a name gives are not always drawn.
# Molecular target: T1, His-tagged recombinant human TrkA (Homo sapiens, UniProt P04629)
# T1 construct: 6HIS tagged cytoplasmic domain from Invitrogen, Catalog No. PV3144; purchased Invitrogen PV3144
# Test: TrkA Kinase Binding Assay (LanthaScreen Eu)
# Conditions: averaged IC50; TR-FRET binding, 60 min, 22° C.; read-out: TrkA Enzyme IC50
# Method: TrkA binding activity was determined in a TrkA LanthaScreen™ Eu Kinase Binding Assay. 5 nM His-tagged recombinant human TrkA (6HIS tagged cytoplasmic domain from Invitrogen, Catalog No. PV3144) was incubated with 4 nM Alexa-Fluor® Tracer 236 (Invitrogen Cat. No. PV5592), 2 nM biotinylated anti-His (Invitrogen Cat. No. PV6090), and 2 nM europium-labeled Streptavidin (Invitrogen Cat. No. PV5899), in buffer (25 mM MOPS, pH 7.5, 5 mM MgCl2, 0.005% Triton X-100). Three fold serial dilutions of compounds of the invention in DMSO were added to a final percentage of 2% DMSO. After 60-minute incubation at 22° C., the reaction was measured using the EnVision mutlimode plate reader (PerkinElmer) via TR-FRET dual wavelength detection at […]. The percent of control was calculated using a ratiometric emission factor. The IC50 values were determined by fitting a four parameter model to the percent of control data.
# Table A provides averaged IC50 values for compounds of the invention when tested in the assay of Example A, where A represents an averaged IC50 value <100 nM; B represents an averaged IC50 value from 100 to 1,000 nM; and C represents an average 1050 value above 1000 nM.
# T1 sequence (P04629 440-796 limits assumed): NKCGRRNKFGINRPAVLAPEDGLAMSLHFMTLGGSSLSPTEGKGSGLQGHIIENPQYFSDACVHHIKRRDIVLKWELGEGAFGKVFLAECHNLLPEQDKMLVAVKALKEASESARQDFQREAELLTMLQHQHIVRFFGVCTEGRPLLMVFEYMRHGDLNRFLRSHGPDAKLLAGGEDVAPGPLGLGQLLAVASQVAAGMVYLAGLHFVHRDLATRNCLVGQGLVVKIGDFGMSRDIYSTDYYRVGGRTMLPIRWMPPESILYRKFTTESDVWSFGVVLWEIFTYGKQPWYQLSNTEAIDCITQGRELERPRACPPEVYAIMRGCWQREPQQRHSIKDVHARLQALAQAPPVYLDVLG
row,SMILES,IC50
1,"COCc1ccc(OC(F)(F)F)c(CNC(=O)Nc2c(C)c(O[C@H]3C[C@H](N)C3)nn2-c2ccccc2)c1 [Example 100, 1-(3-((1r,3r)-3-aminocyclobutoxy)-4-methyl-1-phenyl-1H-pyrazol-5-yl)-3-(5-(methoxymethyl)-2-(trifluoromethoxy)benzyl)urea]",< 100 nM
2,"Cc1c(-c2cnn(C)c2)nn(-c2ccccc2)c1NC(=O)NCc1cccc2ccccc12 [Example 43, 1-(1′,4-dimethyl-1-phenyl-1H,1′H-3,4′-bipyrazol-5-yl)-3-(naphthalen-1-ylmethyl)urea]",100 to 1000 nM
3,"COCc1ccc(OC(F)(F)F)c(CNC(=O)Nc2c(C)c(Oc3ccccc3)nn2-c2ccccc2)c1 [Example 77, 1-(5-(methoxymethyl)-2-(trifluoromethoxy)benzyl)-3-(4-methyl-3-phenoxy-1-phenyl-1H-pyrazol-5-yl)urea]",100 to 1000 nM
4,"COCc1ccc(OC2CCC2)c(CNC(=O)Nc2c(C)c(-c3cnn(C)c3)nn2-c2ccccc2)c1 [Example 18, 1-(2-cyclobutoxy-5-(methoxymethyl)benzyl)-3-(1′,4-dimethyl-1-phenyl-1H,1′H-[3,4′-bipyrazol]-5-yl)urea]",100 to 1000 nM
5,"COCc1ccc(CN)c(CNC(=O)Nc2c(C)c(-c3cnn(C)c3)nn2-c2ccccc2)c1 [Example 118, 1-(2-(aminomethyl)-5-(methoxymethyl)benzyl)-3-(1′,4-dimethyl-1-phenyl-1H,1′H-[3,4′-bipyrazol]-5-yl)urea]",100 to 1000 nM
6,"Cc1c(-c2cnn(C)c2)nn(-c2ccccc2)c1NC(=O)NCC1CCCc2ccccc21 (stereo not shown) [Example 44, 1-(1′,4-dimethyl-1-phenyl-1H,1′H-3,4′-bipyrazol-5-yl)-3-((1,2,3,4-tetrahydronaphthalen-1-yl)methyl)urea]",< 100 nM
7,"COCc1cccc(C(C)NC(=O)Nc2c(C)c(-c3cnn(C)c3)nn2-c2ccccc2)c1 (stereo not shown) [Example 29, 1-(1′,4-dimethyl-1-phenyl-1H,1′H-[3,4′-bipyrazol]-5-yl)-3-(1-(3-(methoxymethyl)phenyl)ethyl)urea 2,2,2-trifluoroacetate]",100 to 1000 nM
8,"CC(Cc1ccccc1)(NC(=O)Nc1c2c(nn1-c1ccccc1)CCC2)c1ccccc1 (stereo not shown) [Example 41, 1-(1,2-diphenylpropan-2-yl)-3-(2-phenyl-2,4,5,6-tetrahydrocyclopenta[c]pyrazol-3-yl)urea]",100 to 1000 nM
9,"COCc1ccc(C2(F)COC2)c(CNC(=O)Nc2c(C)c(-c3ccc(C)nc3)nn2-c2ccccc2)c1 [Example 32, 1-(2-(3-fluorooxetan-3-yl)-5-(methoxymethyl)benzyl)-3-(4-methyl-3-(6-methylpyridin-3-yl)-1-phenyl-1H-pyrazol-5-yl)urea]",100 to 1000 nM
10,"COCc1ccc(OC(F)(F)F)c(CNC(=O)Nc2c(C)c(OC[C@H](C)N)nn2-c2ccccc2)c1 [Example 96, (S)-1-(3-(2-aminopropoxy)-4-methyl-1-phenyl-1H-pyrazol-5-yl)-3-(5-(methoxymethyl)-2-(trifluoromethoxy)benzyl)urea]",< 100 nM
11,"COCc1cc(CNC(=O)Nc2c(C)c(-c3cnn(C)c3)nn2-c2ccccc2)c(C2CCC2)cc1F [Example 117, 1-(2-cyclobutyl-4-fluoro-5-(methoxymethyl)benzyl)-3-(1′,4-dimethyl-1-phenyl-1H,1′H-[3,4′-bipyrazol]-5-yl)urea]",< 100 nM
12,"COCc1ccc(C2CC2)c(CNC(=O)Nc2c(C)c(-c3ccn(C)c(=O)c3)nn2-c2ccccc2)c1 [Example 7, 1-(2-cyclopropyl-5-(methoxymethyl)benzyl)-3-(4-methyl-3-(1-methyl-2-oxo-1,2-dihydropyridin-4-yl)-1-phenyl-1H-pyrazol-5-yl)urea]",< 100 nM

# The remaining lines, values ahead:
row,IC50,SMILES
1,< 100 nM,"COCc1ccc(C2CCCC2)c(CNC(=O)Nc2c(C)c(-c3cnc(C)nc3)nn2-c2ccccc2)c1 [Example 12, 1-(2-cyclopentyl-5-(methoxymethyl)benzyl)-3-(4-methyl-3-(2-methylpyrimidin-5-yl)-1-phenyl-1H-pyrazol-5-yl)urea]"
2,< 100 nM,"COCc1ccc(C2CCC2)c(CNC(=O)Nc2c(C)c(=O)[nH]n2-c2ccccc2)c1 [Example 122, 1-(2-cyclobutyl-5-(methoxymethyl)benzyl)-3-(4-methyl-5-oxo-2-phenyl-2,5-dihydro-1H-pyrazol-3-yl)urea]"
3,< 100 nM,"COCc1ccc(OC(F)(F)F)c(CNC(=O)Nc2c(C)c(OCC3(F)CCNCC3)nn2-c2ccccc2)c1 [Example 70, 1-(3-((4-fluoropiperidin-4-yl)methoxy)-4-methyl-1-phenyl-1H-pyrazol-5-yl)-3-(5-(methoxymethyl)-2-(trifluoromethoxy)benzyl)urea]"
4,< 100 nM,"COCc1ccc(OC(F)(F)F)c(CNC(=O)Nc2c(C)c(OC[C@H]3CCNC[C@H]3F)nn2-c2ccccc2)c1 [Example 88, 1-(3-(((3S,4R)-3-fluoropiperidin-4-yl)methoxy)-4-methyl-1-phenyl-1H-1-pyrazol-5-yl)-3-(5-(methoxymethyl)-2-(trifluoromethoxy)benzyl)urea 2,2,2-trifluoroacetate]"
5,< 100 nM,"COCc1ccc(OC(F)(F)F)c(CNC(=O)Nc2c(C)c(O[C@@H]3CCNC[C@H]3F)nn2-c2ccccc2)c1 [Example 95, 1-(3-(((3R,4R)-3-fluoropiperidin-4-yl)oxy)-4-methyl-1-phenyl-1H-pyrazol-5-yl)-3-(5-(methoxymethyl)-2-(trifluoromethoxy)benzyl)urea]"
6,< 100 nM,"COCc1ccc(OC(F)(F)F)c(CNC(=O)Nc2c(C)c(OC[C@H](N)CO)nn2-c2ccccc2)c1 [Example 109, (R)-1-(3-(2-amino-3-hydroxypropoxy)-4-methyl-1-phenyl-1H-pyrazol-5-yl)-3-(5-(methoxymethyl)-2-(trifluoromethoxy)benzyl)urea]"
7,< 100 nM,"COCc1ccc(OC(F)F)c(CNC(=O)Nc2c(C)c(-c3cncc(OC)c3)nn2-c2ccccc2)c1 [Example 52, 1-(2-(difluoromethoxy)-5-(methoxymethyl)benzyl)-3-(3-(5-methoxypyridin-3-yl)-4-methyl-1-phenyl-1H-pyrazol-5-yl)urea]"
8,< 100 nM,"COCc1ccc(OC(F)(F)F)c(CNC(=O)Nc2c(C)c(OC[C@@H]3CCC(=O)N3)nn2-c2ccccc2)c1 [Example 131, (S)-1-(5-(methoxymethyl)-2-(trifluoromethoxy)benzyl)-3-(4-methyl-3-((5-oxopyrrolidin-2-yl)methoxy)-1-phenyl-1H-pyrazol-5-yl)urea]"
9,< 100 nM,"COCc1ccc(OC(F)(F)F)c(CNC(=O)Nc2c(C)c(OC[C@@H](C)N)nn2-c2ccccc2)c1 [Example 97, (R)-1-(3-(2-aminopropoxy)-4-methyl-1-phenyl-1H-pyrazol-5-yl)-3-(5-(methoxymethyl)-2-(trifluoromethoxy)benzyl)urea]"
10,< 100 nM,"COCc1ccc(OC(F)(F)F)c(CNC(=O)Nc2c(C)c(OC3CC4(C3)CN(C)C4)nn2-c2ccccc2)c1 [Example 85, 1-(5-(methoxymethyl)-2-(trifluoromethoxy)benzyl)-3-(4-methyl-3-((2-methyl-2-azaspiro[3.3]heptan-6-yl)oxy)-1-phenyl-1H-pyrazol-5-yl)urea]"
11,< 100 nM,"COCc1ccc(OC(F)(F)F)c(CNC(=O)Nc2c(C)c(OCC3CCN(C)CC3)nn2-c2ccccc2)c1 [Example 93, 1-(5-(methoxymethyl)-2-(trifluoromethoxy)benzyl)-3-(4-methyl-3-((1-methylpiperidin-4-yl)methoxy)-1-phenyl-1H-pyrazol-5-yl)urea]"
12,< 100 nM,"COCc1ccc(C2(F)COC2)c(CNC(=O)Nc2c(C)c(-c3cnn(C)c3)nn2-c2ccccc2)c1 [Example 31, 1-(1′,4-dimethyl-1-phenyl-1H,1′H-[3,4′-bipyrazol]-5-yl)-3-(2-(3-fluorooxetan-3-yl)-5-(methoxymethyl)benzyl)urea]"
13,< 100 nM,"COCc1ccc(OC(F)(F)F)c(CNC(=O)Nc2c(C)c(OC3CC4(CCN4)C3)nn2-c2ccccc2)c1 (stereo not shown) [Example 90, 1-(3-(1-azaspiro[3.3]heptan-6-yloxy)-4-methyl-1-phenyl-1H-pyrazol-5-yl)-3-(5-(methoxymethyl)-2-(trifluoromethoxy)benzyl)urea]"
14,< 100 nM,"COCc1ccc(OC(F)(F)F)c(CNC(=O)Nc2c(C)c(OC[C@@H]3CCNC[C@H]3F)nn2-c2ccccc2)c1 [Example 87, 1-(3-(((3S,4S)-3-fluoropiperidin-4-yl)methoxy)-4-methyl-1-phenyl-1H-pyrazol-5-yl)-3-(5-(methoxymethyl)-2-(trifluoromethoxy)benzyl)urea]"
15,< 100 nM,"COCc1ccc(OC(F)(F)F)c(CNC(=O)Nc2c(C)c(OCC3CCN(C)C3)nn2-c2ccccc2)c1 (stereo not shown) [Example 106, 1-(5-(methoxymethyl)-2-(trifluoromethoxy)benzyl)-3-(4-methyl-3-((1-methylpyrrolidin-3-yl)methoxy)-1-phenyl-1H-pyrazol-5-yl)urea hydrochloride]"
16,< 100 nM,"COCc1ccc(OC(F)(F)F)c(CNC(=O)Nc2c(C)c(OCC3CN(C)C3)nn2-c2ccccc2)c1 [Example 75, 1-(5-(methoxymethyl)-2-(trifluoromethoxy)benzyl)-3-(4-methyl-3-((1-methylazetidin-3-yl)methoxy)-1-phenyl-1H-pyrazol-5-yl)urea]"
